In ChEMBL document CHEMBL1201862, “PubChem BioAssay data set” (2004):
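Tested at 5 concentrations; 48 h exposure; 96-well plates; endpoints linearly interpolated, else capped at highest concentration. GI50 marks 50% less growth.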 Active and inactive are the calls of the source. Rule as the data show it: active = GI50 up to about 1.1 µM and inactive = higher.

How the values were obtained:
Test in all cases: NCI-60 cell line screen, 48 h
[1] = system: NCI-H226
[2] = system: HCC 2998
[3] = system: RXF 393
[4] = system: SF-268
[5] = system: UACC-62
[6] = system: KM12
[7] = system: SNB-75
[8] = system: NCI-H460
[9] = system: HOP-62
[10] = system: TK-10
[11] = system: SF-539
[12] = system: UO-31
[13] = system: K562
[14] = system: HCT-116
[15] = system: RPMI-8226
[16] = system: SNB-19
[17] = system: SNB-78
[18] = system: SK-OV-3
[19] = system: SN12C
[20] = system: M19-MEL
[21] = system: NCI-H522
[22] = system: SK-MEL-2
[23] = system: CAKI-1
[24] = system: UACC-257
[25] = system: A549
[26] = system: DLD-1
[27] = system: OVCAR-5
[28] = system: SW-620
[29] = system: LOX IMVI
[30] = system: DMS-114
[31] = system: SK-MEL-28
[32] = system: IGROV-1
[33] = system: DMS-273
[34] = system: EKVX
[35] = system: HCT-15
[36] = system: SF-295
[37] = system: OVCAR-3
[38] = system: M14
[39] = system: RXF 631
[40] = system: COLO 205
[41] = system: HOP-92
[42] = system: CCRF-CEM
[43] = system: ACHN
[44] = system: HT-29
[45] = system: 786-0
[46] = system: U-251
[47] = system: Malme-3M
[48] = system: HL-60
[49] = system: KM-20L2
[50] = system: SR
[51] = system: XF498
[52] = system: LXFL 529
[53] = system: MOLT-4
[54] = system: OVCAR-8
[55] = system: NCI-H23
[56] = system: SK-MEL-5
[57] = system: OVCAR-4
[58] = system: A498

COC1=CC(=Nc2c(Cl)cc(Cl)cc2OC(=O)c2ccc([N+](=O)[O-])cc2)C=C(OC)C1=O
GI50 [1]: 15.2 µM (inactive)
GI50 [2]: 18.2 µM (inactive)
GI50 [3]: 12.1 µM (inactive)
GI50 [4]: 9.64 µM (inactive)
GI50 [5]: 4.26 µM (inactive)
GI50 [6]: 15.5 µM (inactive)
GI50 [7]: 14.2 µM (inactive)
GI50 [8]: 14.4 µM (inactive)
GI50 [9]: 21.5 µM (inactive)
GI50 [10]: 22.8 µM (inactive)
GI50 [11]: 5.81 µM (inactive)
GI50 [12]: 11.9 µM (inactive)
GI50 [13]: 2.53 µM (inactive)
GI50 [14]: 6.53 µM (inactive)
GI50 [15]: 5.04 µM (inactive)
GI50 [16]: 16.4 µM (inactive)
GI50 [17]: 23.3 µM (inactive)
GI50 [18]: 16.5 µM (inactive)
GI50 [19]: 11.8 µM (inactive)
GI50 [20]: 3.41 µM (inactive)
GI50 [21]: 9.23 µM (inactive)
GI50 [22]: 15.8 µM (inactive)
GI50 [23]: 16.9 µM (inactive)
GI50 [24]: 11.7 µM (inactive)
GI50 [25]: 9.77 µM (inactive)
GI50 [26]: 12.4 µM (inactive)
GI50 [27]: 19.5 µM (inactive)
GI50 [28]: 13.5 µM (inactive)
GI50 [29]: 1.81 µM (inactive)
GI50 [30]: 3.79 µM (inactive)
GI50 [31]: 16.7 µM (inactive)
GI50 [32]: 14.5 µM (inactive)
GI50 [33]: 13.6 µM (inactive)
GI50 [34]: 16 µM (inactive)
GI50 [35]: 5.97 µM
GI50 [36]: 11.5 µM (inactive)
GI50 [37]: 8.67 µM (inactive)
GI50 [38]: 13 µM (inactive)
GI50 [39]: 4.51 µM (inactive)
GI50 [40]: 17.5 µM (inactive)
GI50 [41]: 5.62 µM (inactive)
GI50 [42]: 2.87 µM (inactive)
GI50 [43]: 10.7 µM (inactive)
GI50 [44]: 18.4 µM (inactive)
GI50 [45]: 14.8 µM (inactive)
GI50 [46]: 13.8 µM (inactive)
GI50 [47]: 15.5 µM (inactive)
GI50 [48]: 1.83 µM (inactive)
GI50 [49]: 17.7 µM (inactive)
GI50 [50]: 3.22 µM (inactive)
GI50 [51]: 8.39 µM (inactive)
GI50 [52]: 5.78 µM (inactive)
GI50 [53]: 2.87 µM (inactive)
GI50 [54]: 7.35 µM (inactive)
GI50 [55]: 9.12 µM (inactive)
GI50 [56]: 7.05 µM (inactive)
GI50 [57]: 10 µM (inactive)

CC(C)C12C=CC(C)(CC1)n1c(=O)c3cc4ccccc4cc3c(=O)n12 (centres undefined)
GI50 [1]: 40.6 µM (inactive)
GI50 [2]: 33.7 µM (inactive)
GI50 [3]: > 100 µM (inactive)
GI50 [4]: 67.3 µM (inactive)
GI50 [6]: 50.8 µM (inactive)
GI50 [7]: 33.7 µM (inactive)
GI50 [8]: 45.5 µM (inactive)
GI50 [9]: > 100 µM (inactive)
GI50 [10]: 29.9 µM (inactive)
GI50 [11]: 66.7 µM (inactive)
GI50 [12]: 24.9 µM (inactive)
GI50 [13]: 34.4 µM (inactive)
GI50 [14]: 47.2 µM (inactive)
GI50 [15]: 36.3 µM (inactive)
GI50 [16]: 40.5 µM (inactive)
GI50 [17]: > 100 µM (inactive)
GI50 [18]: 52.1 µM (inactive)
GI50 [19]: 34.7 µM (inactive)
GI50 [20]: 66.8 µM (inactive)
GI50 [21]: 29.3 µM (inactive)
GI50 [22]: 48.3 µM (inactive)
GI50 [23]: 87.9 µM (inactive)
GI50 [24]: 63.1 µM (inactive)
GI50 [25]: 45.4 µM (inactive)
GI50 [26]: 38.7 µM (inactive)
GI50 [27]: 40.7 µM (inactive)
GI50 [28]: 60.1 µM (inactive)
GI50 [29]: 41.9 µM (inactive)
GI50 [30]: 41.9 µM (inactive)
GI50 [31]: > 100 µM (inactive)
GI50 [58]: 22.5 µM (inactive)
GI50 [32]: 47.8 µM (inactive)
GI50 [33]: 40.6 µM (inactive)
GI50 [34]: 43.5 µM (inactive)
GI50 [35]: 33.3 µM
GI50 [36]: 73.5 µM (inactive)
GI50 [37]: 46.2 µM (inactive)
GI50 [38]: 76.4 µM (inactive)
GI50 [39]: 54.3 µM (inactive)
GI50 [40]: 41.9 µM (inactive)
GI50 [41]: 38.5 µM (inactive)
GI50 [42]: 43.1 µM (inactive)
GI50 [43]: 36.4 µM (inactive)
GI50 [44]: 45.1 µM (inactive)
GI50 [45]: 55.3 µM (inactive)
GI50 [46]: 76 µM (inactive)
GI50 [47]: 42.9 µM (inactive)
GI50 [48]: 34 µM (inactive)
GI50 [49]: 31.7 µM (inactive)
GI50 [50]: 33.5 µM (inactive)
GI50 [51]: 26.4 µM (inactive)
GI50 [52]: 34 µM (inactive)
GI50 [53]: 30.8 µM (inactive)
GI50 [54]: 75.9 µM (inactive)
GI50 [55]: 52 µM (inactive)
GI50 [56]: 32 µM (inactive)
GI50 [57]: 43.9 µM (inactive)
